Results taken from patent US20230331803A1, “CO-AGONISTS OF THE GLP-1 AND AMYLIN RECEPTORS” (priority 2020, published 2023).
Where two headings read alike, the source gives them in different places. Starred links: 1 amine or outer side, 2 acyl side, 3 side chain; linkers in the order of their positions; H or OH if unused. Non-standard residues stand in square brackets, D forms with d. Groups on a side chain read outwards from the residue. *: point of attachment. Butyryl(4-SO2NHCO(CH2)16Tz) = O=C(CCCCCCCCCCCCCCCCc1nnn[nH]1)NS(=O)(=O)CCCC(=O)*; Decanoyl(10-(4-HOOC-PhO)) = O=C(O)c1ccc(OCCCCCCCCCC(=O)*)cc1; C20 diacid = O=C(O)CCCCCCCCCCCCCCCCCCC(=O)*; C18 diacid = O=C(O)CCCCCCCCCCCCCCCCC(=O)*; C16 diacid = O=C(O)CCCCCCCCCCCCCCC(=O)*; γGlu = O=C(O)[C@H](CCC(=O)[*:2])N[*:1]; εLys = N[C@@H](CCCCN[*:1])C(=O)[*:2]; Trx = NC[C@H]1CC[C@H](C(=O)O)CC1; AEEA = NCCOCCOCC(=O)O; Aib = CC(C)(N)C(=O)O

Columns and labels:
human GLP-1 receptor = biological target: T1, human GLP-1 receptor (Homo sapiens, UniProt P43220); test: Human GLP-1 receptor in vitro potency assay (CRE-luciferase reporter, BHK cells); assay type: cell-based
T1 construct: expressed in transfected cells; host or cells: BHK (Baby Hamster Kidney) cells, clone BHK 467-12A KZ-10, stably transfected, with CRE-luciferase reporter
T1 sequence (P43220 24-463): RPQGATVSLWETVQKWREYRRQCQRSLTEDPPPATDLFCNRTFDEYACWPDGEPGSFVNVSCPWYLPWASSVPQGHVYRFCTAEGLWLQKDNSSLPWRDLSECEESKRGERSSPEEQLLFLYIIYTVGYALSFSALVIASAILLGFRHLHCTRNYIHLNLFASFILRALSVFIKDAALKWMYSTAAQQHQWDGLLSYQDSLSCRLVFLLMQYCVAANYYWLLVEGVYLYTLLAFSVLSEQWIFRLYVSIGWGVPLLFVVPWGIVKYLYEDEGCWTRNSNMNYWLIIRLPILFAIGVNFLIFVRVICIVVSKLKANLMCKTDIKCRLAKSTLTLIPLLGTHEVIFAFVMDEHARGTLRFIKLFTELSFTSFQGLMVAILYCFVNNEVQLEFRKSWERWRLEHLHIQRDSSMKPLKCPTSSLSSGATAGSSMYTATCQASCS
Procedure: It is thus possible to measure GLP-1 receptor activity using a CRE-luciferase reporter gene introduced into Baby Hamster Kidney (BHK) cells co-expressing the GLP-1 receptor.
Cells were aliquoted and stored at -180° C. until use.
Plates were sealed and incubated at room temperature with gentle shaking for 30 minutes while protected from light. Luminescence was detected on a luminescence plate reader e.g. a Synergy 2 (BioTek).

[1] = biological target: T2, human amylin receptor (hAmyR3) (Homo sapiens, UniProt O60896+P30988); test: Human amylin receptor in vitro potency assay (CRE-luciferase reporter, BHK cells); assay type: cell-based;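 further: BHK cells expressing human calcitonin receptor plus RAMP3 (amylin-3 receptor) with a CRE-luciferase reporter, agonist activity read as luminescence from cAMP-driven transcription, 7-point serial dilutions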
T2 construct: host or cells: BHK cells (Hollex-1 line: human calcitonin receptor (a) + CRE-Luc), further transfected with human RAMP3
T2 sequence (P30988 25-474): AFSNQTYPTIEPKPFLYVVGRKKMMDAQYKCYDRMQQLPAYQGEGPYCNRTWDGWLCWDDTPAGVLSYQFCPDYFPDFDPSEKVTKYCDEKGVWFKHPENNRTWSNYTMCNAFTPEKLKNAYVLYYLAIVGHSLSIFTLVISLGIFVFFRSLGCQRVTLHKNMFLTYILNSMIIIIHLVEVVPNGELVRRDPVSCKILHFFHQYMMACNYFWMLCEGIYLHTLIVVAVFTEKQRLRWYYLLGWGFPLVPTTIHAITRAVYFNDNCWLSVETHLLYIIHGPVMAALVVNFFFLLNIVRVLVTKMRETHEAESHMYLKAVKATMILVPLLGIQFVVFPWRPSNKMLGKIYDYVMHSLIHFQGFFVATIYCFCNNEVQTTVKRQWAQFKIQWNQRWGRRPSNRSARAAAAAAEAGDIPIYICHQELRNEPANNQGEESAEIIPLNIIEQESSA
T2 sequence (O60896 24-148): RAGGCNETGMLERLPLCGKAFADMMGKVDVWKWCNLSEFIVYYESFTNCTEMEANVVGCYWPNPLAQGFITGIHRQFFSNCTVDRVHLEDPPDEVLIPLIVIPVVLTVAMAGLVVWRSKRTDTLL

[2] = Table 4a, BHK cells expressing human GLP-1R, CRE-Luc, 3 hours, read-out: Human GLP-1R potency [EC50 (pM)]
[3] = Table 4a, BHK hAmyR3/CRE-Luc cells, 3 hours, read-out: Human AmyR3 potency [EC50 (pM)]
[4] = Table 4c, further comparator compounds
[5] = Table 4c, further comparator compounds, read-out: Human AmyR3 potency [EC50 (pM)]

| Substance | EC50 (human GLP-1 receptor; [2]) [pM] | EC50 [1, 3] [pM] | also measured |
| --- | --- | --- | --- |
| H-H[Aib]EGTFTSDVSSYLEEQAARK(Butyryl(4-SO2NHCO(CH2)16Tz))FIAWLVRGRGEASELSTAALGRLSAELHELATLPRTETGSGSP-NH2 [Compound 0125] | 8 | 12.2 |  |
| H-H[Aib]EGTFTSDVSSYLEEQAARK([AEEA-AEEA-γGlu-C16 diacid])FIAWLVK([AEEA-AEEA-γGlu-C16 diacid])GRGGGEASELSTAALGRLSAELHELATLPRTETGSGSP-NH2 [Compound 0077] | 2.1 | 25.7 |  |
| H-H[Aib]EGTFTSDVSSYLEEQAARK([AEEA-AEEA-γGlu-C16 diacid])FIAWLVRGRGGGGGASELSTAALGRLSK([AEEA-AEEA-γGlu-C16 diacid])ELHELATLPRTETGSGSP-NH2 [Compound 0296] | 4 | 29.9 |  |
| H-H[Aib]EGTFTSDVSSYLEEQAARK([AEEA-AEEA-γGlu-C16 diacid])FIAWLVRGRGGGGGEASELSTAALGRLSAELHK([AEEA-AEEA-γGlu-C16 diacid])LATLPRTETGSGSP-NH2 [Compound 0509] | 7.1 | 29.9 |  |
| H-H[Aib]EGTFTSDVSSYLEEQAARK([AEEA-AEEA-γGlu-C16 diacid])FIEWLVRGK([AEEA-AEEA-γGlu-C16 diacid])GEGGEASELSTAALGRLSAELHELATLPRTETGSGSP-NH2 [Compound 0086] | 3.9 | 78.3 |  |
| H-H[Aib]EGTFTSDVSSYLEEQAARK([AEEA-AEEA-γGlu-C18 diacid])FIAWLVRGRGGGGGEASELSTAALGRLSAELHELATLPRTETGSGSP-NH2 [Compound 0639] | 1.5 | 4.6 |  |
| H-H[Aib]EGTFTSDVSSYLEEQAARK([AEEA-AEEA-γGlu-C18 diacid])FIEWLVRGK([AEEA-AEEA-γGlu-C18 diacid])GEGGEASELSTAALGRLSAELHELATLPRTETGSGSP-NH2 [Compound 0089] | 5.7 | 65.5 |  |
| H-H[Aib]EGTFTSDVSSYLEEQAARK([AEEA-AEEA-γGlu-C18 diacid])FIEWLVRGK([AEEA-AEEA-γGlu-C18 diacid])GGEASELSTAALGRLSAELHELATLPRTETGSGSP-NH2 [Compound 0128] | 9.7 | 110 |  |
| H-H[Aib]EGTFTSDVSSYLEEQAARK([AEEA-AEEA-γGlu-C18 diacid])FIEWLVRGRK([AEEA-AEEA-γGlu-C18 diacid])GGEASELSTAALGRLSAELHELATLPRTETGSGSP-NH2 [Compound 0129] | 1.2 | 23.5 |  |
| H-H[Aib]EGTFTSDVSSYLEEQAARK([AEEA-AEEA-γGlu-C20 diacid])FIAWLVRGRGGGGGEASELSTAALGRLSAELHELATLPRTETGSGSP-NH2 [Compound 0562] | 19.3 | 4.1 |  |
| H-H[Aib]EGTFTSDVSSYLEEQAARK([AEEA-AEEA-γGlu-C20 diacid])FIEWLVRGASELSTAALGRLSAELHELATLPRTETGSGSP-NH2 [Compound 0581] | 17 | 26.4 |  |
| H-H[Aib]EGTFTSDVSSYLEEQAARK([γGlu-C18 diacid])FIAWLVRGRGGGGGGGGK([γGlu-C18 diacid])EASELSTAALGRLSAELHELATLPRTETGSGSP-NH2 [Compound 0160] | 11.9 | 27.3 |  |
| H-H[Aib]EGTFTSDVSSYLEEQAARK([γGlu-γGlu-γGlu-γGlu-C20 diacid])FIAWLVRGRGGGGGEASELSTAALGRLSAELHELATLPRTETGSGSP-NH2 [Compound 0633] | 28.2 | 5.3 |  |
| H-H[Aib]EGTFTSDVSSYLEGQAAK([AEEA-AEEA-γGlu-C18 diacid])EFIAWLVRGRGGGGEASELSTAALGRLSAELHELATLPRTETGSGSP-NH2 [Compound 0040] | 20.7 | 7.7 |  |
| H-H[Aib]EGTFTSDVSSYLEGQAAK([AEEA-AEEA-γGlu-C18 diacid])EFIAWLVRGRGGGGGGGGGGGGGEASELSTAALGRLSAELHELATLPRTETGSGSP-NH2 [Compound 0092] | 18.5 | 10.9 |  |
| H-H[Aib]EGTFTSDVSSYLEGQAAK([AEEA-AEEA-γGlu-C18 diacid])EFIAWLVRGRGGGGGGGGGGGGGGGGGEASELSTAALGRLSAELHELATLPRTETGSGSP-NH2 [Compound 0093] | 7.5 | 8.6 |  |
| H-H[Aib]EGTFTSDVSSYLEGQAAK([AEEA-AEEA-γGlu-C18 diacid])EFIAWLVRGRGGQEPGQEPEASELSTAALGRLSAELHELATLPRTETGSGSP-NH2 [Compound 0019] | 13.7 | 26.5 |  |
| H-H[Aib]EGTFTSDVSSYLEGQAAKEFIAWLVRGRK([εLys-AEEA-AEEA-γGlu-C18 diacid])GGEASELSTAALGRPSAELHELATLPRTETGSGSP-NH2 [Comparator compound 0185, reference compound] |  |  | EC50 (human GLP-1 receptor; [4]): 13.1 pM; EC50 [1, 5]: 5660 pM; Ability to agonise the amylin receptor, in words ([1]; Tables 4a-4c): impaired their ability to agonise (activate) the amylin receptor |
| H-H[Aib]EGTFTSDVSSYLEGQAAKEIFAWLVRGRK([εLys-AEEA-AEEA-γGlu-C18 diacid])GGEASELSTAALGRLSAELHELATLPRTETGSGSP-NH2 [Comparator compound 0164, reference compound] |  |  | EC50 (human GLP-1 receptor; [4]): 852 pM; Ability to agonise the GLP-1 receptor, in words (human GLP-1 receptor; Tables 4a-4c): impaired their ability to agonise (activate) the GLP-1 receptor; EC50 [1, 5]: 29.6 pM |
| HAEGTFTSDVSSYLEEK([AEEA-AEEA-γGlu-C18 diacid])AAREFIEWLVRGRGEASELSTAALGRLSAELHELATLPRTETGSGSP-NH2 [Compound 0472] | 2.8 | 24 |  |
| HGEGTFTSDVSSYLEEQAARK([AEEA-AEEA-γGlu-Decanoyl(10-(4-HOOC-PhO))])FIEWLVRGK([AEEA-AEEA-γGlu-Decanoyl(10-(4-HOOC-PhO))])GEGGGGGEASELSTAALGRLSAELHELATLPRTETGSGSP-NH2 [Compound 0097] |  |  | EC50 (human GLP-1 receptor): 10 pM; EC50 [1]: 93.1 pM |
| HGEGTFTSDVSSYLEEQAARK([AEEA-AEEA-γGlu-Decanoyl(10-(4-HOOC-PhO))])FIEWLVRGK([AEEA-AEEA-γGlu-Decanoyl(10-(4-HOOC-PhO))])GEGGGGGGGGGEASELSTAALGRLSAELHELATLPRTETGSGSP-NH2 [Compound 0098] |  |  | EC50 (human GLP-1 receptor): 7.9 pM; EC50 [1]: 15.6 pM |
| HWEGTFTSD-K([2-[2-[2-[[2-[2-[2-[[(4S)-4-Carboxy-4-[[4-[(19-Carboxynonadecanoylamino)Methyl]Cyclohexanecarbonyl]Amino]Butanoyl]Amino]Ethoxy]Ethoxy]Acetyl]Amino]Ethoxy]Ethoxy]Acetyl])-SSYLEEQAAREFIEWLVRGRGEASELSTAALGRLSAELHELATLPRTETGSGSP-amide [Compound 0272] | 9.2 | 11.3 |  |

Second part, led by results:

| EC50 (human GLP-1 receptor; [2]) [pM] | EC50 [1, 3] [pM] | Substance | also measured |
| --- | --- | --- | --- |
| 22.6 | 22.6 | H-H[Aib]EGTFTSDVSSYLEGQAAK([AEEA-AEEA-γGlu-C18 diacid])EFIAWLVRGRGQAPGQEPEASELSTAALGRLSAELHELATLPRTETGSGSP-NH2 [Compound 0156] |  |
| 8.8 | 14 | H-H[Aib]EGTFTSDVSSYLEGQAAK([AEEA-AEEA-γGlu-C18 diacid])EFIAWLVRGRGQEPGQAPEASELSTAALGRLSAELHELATLPRTETGSGSP-NH2 [Compound 0026] |  |
| 7.5 | 11.3 | H-H[Aib]EGTFTSDVSSYLEGQAAK([AEEA-AEEA-γGlu-C20 diacid])EFIAWLVRGRGGGGGGGGGEASELSTAALGRLSAELHELATLPRTETGSGSP-NH2 [Compound 0094] |  |
| 28.7 | 18.4 | H-H[Aib]EGTFTSDVSSYLEGQAAK([AEEA-AEEA-γGlu-C20 diacid])EFIAWLVRGRGQAPGQEPEASELSTAALGRLSAELHELATLPRTETGSGSP-NH2 [Compound 0157] |  |
| 10.5 | 28.4 | H-H[Aib]EGTFTSDVSSYLEGQAAK([AEEA-AEEA-γGlu-C20 diacid])EFIAWLVRGRGQEPGQAPEASELSTAALGRLSAELHELATLPRTETGSGSP-NH2 [Compound 0202] |  |
| 30.3 | 19.3 | H-H[Aib]EGTFTSDVSSYLEGQAAK([εLys-AEEA-AEEA-γGlu-C18 diacid])EFIAWLVRGRGGGGGGGGGEASELSTAALGRLSAELHELATLPRTETGSGSP-NH2 [Compound 0159] |  |
| 7.9 | 49.5 | H-H[Aib]EGTFTSDVSSYLEGQAAREFIAWLVRGK([AEEA-AEEA-γGlu-C18 diacid])GEGEGEEASELSTAALGRLSAELHELATLPRTETGSGSP-NH2 [Compound 0009] |  |
| 5.4 | 37 | H-H[Aib]EGTFTSDVSSYLEGQAAREFIAWLVRGRGEGEGEK([AEEA-AEEA-γGlu-C18 diacid])EASELSTAALGRLSAELHELATLPRTETGSGSP-NH2 [Compound 0010] |  |
| 2.2 | 55.8 | H-H[Aib]EGTFTSDVSSYLEGQAAREFIAWLVRGRGQEPGQAPK([AEEA-AEEA-γGlu-C18 diacid])EASELSTAALGRLSAELHELATLPRTETGSGSP-NH2 [Compound 0085] |  |
| 5.9 | 54.8 | H-H[Aib]EGTFTSDVSSYLEGQAAREFIAWLVRGRGQEPK([AEEA-AEEA-γGlu-C18 diacid])GQAPASRLSTEALGRLSAELHELATLPRTETGSGSP-NH2 [Compound 0191] |  |
| 5.4 | 46.2 | H-H[Aib]EGTFTSDVSSYLEGQAAREFIAWLVRGRK([AEEA-AEEA-γGlu-C18 diacid])GQEPGQAPEASELSTAALGRLSAELHELATLPRTETGSGSP-NH2 [Compound 0083] |  |
| 13.7 | 34.3 | H-H[Aib]EGTFTSDVSSYLEK([AEEA-AEEA-γGlu-C16 diacid])QAAREFIAWLVRGRGGGGGASELSTAALGRLSK([AEEA-AEEA-γGlu-C16 diacid])ELHELATLPRTETGSGSP-NH2 [Compound 0294] |  |
| 97.8 | 21 | H-H[Aib]EGTFTSK([AEEA-AEEA-γGlu-Trx-C20 diacid])VSSYLEEQAAREFIEWLVRGRGEASELSTAALGRLSAELHELATLPRTETGSGSP-NH2 [Compound 0417] |  |
